# Literature values in publication PMC5087393, “A Toolbox of Genetically Encoded FRET-Based Biosensors for Rapid L-Lysine Analysis” (Sensors (Basel, Switzerland), 2016).
# What was measured:
# [1] = system: LAO-binding protein of E. coli; settings: read-out: Kd (equilibrium dialysis); without permutation and fluorescent proteins; 10 mM KPi buffer, pH 7.0, 50 mM NaCl
# [2] = target: LAO-binding protein from S. typhimurium; design: method as in PMID 1400387; settings: 10 mM NaPi buffer, pH 7.0; read-out: Kd (equilibrium dialysis)
Compound,Kd [1] [nM],Kd [2] [nM]
NCCCC[C@H](N)C(=O)O [L-lysine],3000,15
N=C(N)NCCC[C@H](N)C(=O)O [L-arginine],1500,14
N[C@@H](Cc1c[nH]cn1)C(=O)O [L-histidine],,500
